Measurements as given in publication PMC2994747, “Molecular Characterization of c-Abl/c-Src Kinase Inhibitors Targeted against Murine Tumour Progenitor Cells that Express Stem Cell Markers” (PLoS ONE, 2010).
pKi: −log10 of the molar value.

Experiments:
[1] = molecular target: T1, c-Abl (Homo sapiens, UniProt P00519); assay: Abl filter-binding kinase assay (Abtide, [γ-32P]ATP); format: biochemical; conditions: isolated Abl; calculated from ID50, ATP-competitive; E0 0.005, S0 0.012 µM
T1 construct: His tag; purchased Upstate (Lake Placid, NY, USA)
Procedure: Baculovirus-produced recombinant purified his-tagged active against human Src and Abl were purchased from Upstate (Lake Placid, NY, USA).
Src activity was measured in a filter-binding assay using the Src Assay Kit (Upstate, Lake Placid, NY, USA), according to the manufacturer's protocol, using the specific Src peptide substrate [[…]] in the presence of 0.125 pmol of Src and 0.160 pmol of [γ-^32P]ATP. Abl activity was measured in a filter-binding assay using an Abl specific peptide substrate (Abtide, Upstate). Reaction conditions were (in a final volume of 10 µl): 25 mM Tris-HCl pH 7.5, 1 mM DTT, 0.012 µM [γ-^32P]ATP, 0.022 µM c-Abl. Reactions were incubated 10 min at 30°C.The samples (9 µl) were spotted on paper cellulose filters which were washed according to the manufacturer's protocol. Filter-bound radioactivity was measured by liquid scintillation with a Microbeta-Trilux apparatus (PerkinElmer, Waltham, MA, USA).
The ID50 were converted to Ki according to a competitive mechanism with respect to the substrate ATP. […] Since (i) the ATP concentration was limiting, i.e., [ATP], Km(ATP), and (ii) the enzyme concentration was not negligible with respect to the ATP concentration, the classical Cheng-Prusoff relationship was not applicable. Consequently, Ki values were calculated according to [drawing 3] (2) where S0 is the concentration of the competing substrate (ATP) and E0 is the concentration of the enzyme. Each experiment was done in triplicate and mean values were used for the interpolation. Curve fitting was performed with the program GraphPad Prism.

[2] = test system: GammaA3; assay: Whole genome expression analysis (Affymetrix microarray); format: cell-based, mouse
Procedure: (§1) The cells were harvested and RNA was isolated using RNeasy Mini Kit (Qiagen, Hilden, Germany) according to the instructions of the manufacturer. The isolated RNA (250 ng) was processed further using standard protocols as described recently with the exception of the 3′ IVT Express Kit (Affymetrix, High Wycombe, UK) that was utilized according to instructions. Quality control of cRNA was done with the Agilent 2100 Bioanalyzer (Agilent Tech according to manufacturer's protocols. Following fragmentation, cRNA of each sample was hybridized to Affymetrix GeneChip® Mouse Genome 430 2.0 or Human Genome U133 Plus 2.0 and scanned with an Affymetrix 3000 7G scanner.
(§2) The resultant data was normalized by Probe Logarithmic Intensity Error Estimation (PLIER) algorithm. Statistical analysis was carried out with the ArrayTrack software (National Center for Toxicological Research/FDA, Jefferson, AR, USA) using SAM algorithm.

[3] = test system: A549; assay: as above; format: cell-based, human
Procedure: as §1, §2

[4] = IC50 concentration, 96 h, SAM FDR<0.01, FC>2

T1 sequence (P00519 whole entry): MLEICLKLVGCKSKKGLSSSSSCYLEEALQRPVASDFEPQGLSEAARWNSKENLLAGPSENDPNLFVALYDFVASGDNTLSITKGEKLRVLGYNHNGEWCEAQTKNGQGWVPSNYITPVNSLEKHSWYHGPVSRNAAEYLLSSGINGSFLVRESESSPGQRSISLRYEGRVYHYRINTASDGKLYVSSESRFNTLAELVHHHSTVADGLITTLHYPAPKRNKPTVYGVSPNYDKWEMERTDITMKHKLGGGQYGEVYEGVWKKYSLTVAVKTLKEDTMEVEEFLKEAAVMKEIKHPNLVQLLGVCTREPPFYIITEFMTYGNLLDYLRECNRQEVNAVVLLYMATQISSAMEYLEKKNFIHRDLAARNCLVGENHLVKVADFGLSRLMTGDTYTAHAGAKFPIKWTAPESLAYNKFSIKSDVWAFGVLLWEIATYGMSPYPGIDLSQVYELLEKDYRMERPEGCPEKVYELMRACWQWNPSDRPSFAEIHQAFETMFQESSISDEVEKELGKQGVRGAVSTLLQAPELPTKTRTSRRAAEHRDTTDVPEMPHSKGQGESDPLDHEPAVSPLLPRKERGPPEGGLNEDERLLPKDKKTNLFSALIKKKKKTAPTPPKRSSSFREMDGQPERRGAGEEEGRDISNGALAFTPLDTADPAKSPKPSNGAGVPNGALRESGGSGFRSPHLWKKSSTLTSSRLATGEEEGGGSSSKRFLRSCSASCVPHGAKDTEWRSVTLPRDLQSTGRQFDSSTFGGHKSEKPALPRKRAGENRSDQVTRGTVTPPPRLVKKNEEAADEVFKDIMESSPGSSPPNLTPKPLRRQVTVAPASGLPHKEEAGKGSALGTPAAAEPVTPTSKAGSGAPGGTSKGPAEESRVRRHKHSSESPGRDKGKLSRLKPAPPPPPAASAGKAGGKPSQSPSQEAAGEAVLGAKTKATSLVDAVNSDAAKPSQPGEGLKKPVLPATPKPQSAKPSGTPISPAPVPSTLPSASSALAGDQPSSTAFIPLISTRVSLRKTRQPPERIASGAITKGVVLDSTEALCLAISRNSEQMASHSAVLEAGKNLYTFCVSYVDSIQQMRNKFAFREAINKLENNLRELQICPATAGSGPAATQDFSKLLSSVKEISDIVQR

Fc1ccccc1CNc1ncnc2c1cnn2CC(Cl)c1ccc(Br)cc1 (stereo not shown) [Si162]
pKi [1]: 6.35 | Actg2 (actin, gamma 2, smooth muscle, enteric) regulated gene, Si162 vs Ktr FC [2]: -4.78 | Bcl2l11 (BCL2-like 11 (apoptosis facilitator) (Bim)) regulated gene, Si162 vs Ktr FC [2]: 1.33 | Birc5 (baculoviral IAP repeat-containing 5) regulated gene, Si162 vs Ktr FC [2]: -3.04 | Capn5 (calpain 5) regulated gene, Si162 vs Ktr FC [2]: 1.96 | Casp6 (caspase 6, apoptosis-related cysteine peptidase) regulated gene, Si162 vs Ktr FC [2]: 1.07 | Ccna2 (cyclin A2) regulated gene, Si162 vs Ktr FC [2]: -2.93 | Ccnb2 (cyclin B2) regulated gene, Si162 vs Ktr FC [2]: -2.44 | Cdc2 (cell division cycle 2 (Cdk1)) regulated gene, Si162 vs Ktr FC [2]: -2.12 | Cdkn1a (cyclin-dependent kinase inhibitor 1A (p21Cip1)) regulated gene, Si162 vs Ktr FC [2]: 1.27 | Cdkn2b (cyclin-dependent kinase inhibitor 2B (p15)) regulated gene, Si162 vs Ktr FC [2]: 1.13 | Cdkn3 (cyclin-dependent kinase inhibitor 3) regulated gene, Si162 vs Ktr FC [2]: -2.80 | Cenpa (centromere protein A) regulated gene, Si162 vs Ktr FC [2]: -2.62 | Crk (v-crk sarcoma virus CT10 oncogene homolog (avian)) regulated gene, Si162 vs Ktr FC [2]: -2.00 | Ctnnb1 (catenin (cadherin-associated protein), beta 1, 88kDa) regulated gene, Si162 vs Ktr FC [2]: 1.94 | Ctsb (cathepsin B) regulated gene, Si162 vs Ktr FC [2]: 1.20 | Cxcl12 (chemokine (C-X-C motif) ligand 12) regulated gene, Si162 vs Ktr FC [2]: -2.74 | Dgka (diacylglycerol kinase, alpha 80kDa) regulated gene, Si162 vs Ktr FC [2]: 2.90 | Fas (Fas (TNF receptor superfamily, member 6)) regulated gene, Si162 vs Ktr FC [2]: 1.40 | Gadd45a (growth arrest and DNA-damage-inducible, alpha) regulated gene, Si162 vs Ktr FC [2]: 2.78 | Grb10 (growth factor receptor-bound protein 10) regulated gene, Si162 vs Ktr FC [2]: 3.65 | Gsk3b (glycogen synthase kinase 3 beta) regulated gene, Si162 vs Ktr FC [2]: 1.12 | Itga6 (integrin, alpha 6) regulated gene, Si162 vs Ktr FC [2]: 4.04 | Jakmip3 (janus kinase and microtubule interacting protein 3) regulated gene, Si162 vs Ktr FC [2]: 4.07 | Lrdd (leucine-rich repeats and death domain containing (Pidd)) regulated gene, Si162 vs Ktr FC [2]: 1.03 | Mdm2 (Mdm2 p53 binding protein homolog (mouse)) regulated gene, Si162 vs Ktr FC [2]: 2.15 | Mmp3 (matrix metallopeptidase 3 (stromelysin 1, progelatinase)) regulated gene, Si162 vs Ktr FC [2]: 2.73 | Mmp13 (matrix metallopeptidase 13 (collagenase 3)) regulated gene, Si162 vs Ktr FC [2]: 2.98 | Nfib (nuclear factor I/B) regulated gene, Si162 vs Ktr FC [2]: -1.23 | Notch3 (Notch homolog 3 (Drosophila)) regulated gene, Si162 vs Ktr FC [2]: 2.78 | Ogn (osteoglycin) regulated gene, Si162 vs Ktr FC [2]: -5.01 | Perp (PERP, TP53 apoptosis effector) regulated gene, Si162 vs Ktr FC [2]: 6.09 | Pik3ca (phosphoinositide-3-kinase, catalytic, alpha polypeptide) regulated gene, Si162 vs Ktr FC [2]: 1.27 | Plcg2 (phospholipase C, gamma 2) regulated gene, Si162 vs Ktr FC [2]: 1.36 | Plk1 (polo-like kinase 1 (Drosophila)) regulated gene, Si162 vs Ktr FC [2]: -3.17 | Pmaip1 (phorbol-12-myristate-13-acetate-induced protein 1 (Noxa)) regulated gene, Si162 vs Ktr FC [2]: 1.94 | Ptk2 (PTK2 protein tyrosine kinase 2 (FAK)) regulated gene, Si162 vs Ktr FC [2]: 1.99 | Rock1 (Rho-associated, coiled-coil containing protein kinase 1) regulated gene, Si162 vs Ktr FC [2]: 1.14 | Spp1 (secreted phosphoprotein 1) regulated gene, Si162 vs Ktr FC [2]: 1.01 | Srf (serum response factor) regulated gene, Si162 vs Ktr FC [2]: -1.12 | Tec (tec protein tyrosine kinase) regulated gene, Si162 vs Ktr FC [2]: 3.51 | Tgfb2 (transforming growth factor, beta 2) regulated gene, Si162 vs Ktr FC [2]: -1.69 | Tnc (tenascin C) regulated gene, Si162 vs Ktr FC [2]: -1.32 | Zyx (zyxin) regulated gene, Si162 vs Ktr FC [2]: -1.59 | Significantly regulated genes, total (number) ([2]; IC50 concentration, 96 h): more than 3500 | Significantly differentially regulated genes, downregulated (number) [2, 4]: 1139 | Significantly differentially regulated genes, upregulated (number) [2, 4]: 2453 | Acta2 (actin, alpha 2, smooth muscle, aorta) regulated gene, Si162 vs Ktr FC [3]: 2.46 | Birc5 (baculoviral IAP repeat-containing 5) regulated gene, Si162 vs Ktr FC [3]: -6.60 | Capn12 (calpain 12) regulated gene, Si162 vs Ktr FC [3]: 1.16 | Ccna2 (cyclin A2) regulated gene, Si162 vs Ktr FC [3]: -6.93 | Ccnb1 (cyclin B1) regulated gene, Si162 vs Ktr FC [3]: -5.43 | Ccnb2 (cyclin B2) regulated gene, Si162 vs Ktr FC [3]: -6.15 | Cdc2 (cell division cycle 2 (Cdk1)) regulated gene, Si162 vs Ktr FC [3]: -7.06 | Cdh1 (cadherin 1, type 1, E-cadherin (epithelial)) regulated gene, Si162 vs Ktr FC [3]: 1.36
